Experimental findings from article PMC9354638, “Targeting p21-activated kinase 4 (PAK4) with pyrazolo[3,4-d]pyrimidine derivative SPA7012 attenuates hepatic ischaemia-reperfusion injury in mice” (Journal of Enzyme Inhibition and Medicinal Chemistry, 2022) are described below.

pIC50: −log10 of the molar value.

The test concerns the target T1, PAK4 (Homo sapiens, UniProt O96013).
T1 construct: purchased Reaction Biology Corporation (Malvern, PA, USA)
Kind of test: HotSpot kinase assay (Reaction Biology Corp.), PAK4 enzyme inhibition. The test is classed as biochemical. The conditions noted are these: ATP 10 μM; for pIC50: 10-dose, 3-fold serial dilution starting at 100 μM; for inhibition at 20 µM: relative percentage inhibition at 20 μM of compounds with staurosporine, read-out: PAK4 enzyme inhibition % inhibitory activity. As for the experimental part: To examine the enzyme activity, HotSpot kinase assay was performed at Reaction Biology Corporation (Malvern, PA, USA). The kinase and substrate pairs were prepared in reaction buffer: 20 mM HEPES at pH 7.5, 10 mM MgCl2, 1 mM EGTA, 0.02% Brij 35, 0.02 mg/mL BSA, 0.1 mM Na3VO4, 2 mM DTT, and 1% DMSO. Compounds were added into the kinase reaction mixture and incubated for 20 min. Then, ^32 P-ATP was introduced to the mixture to initiate the reaction carried out at 10 μM of ATP concentration. After 2 h at room temperature, the mixture was spotted onto P81 ion exchange paper and kinase activity was then evaluated utilising the filter-binding method. Compounds were tested for single dose enzyme inhibition at a concentration of 20 μM. For the control compound, staurosporine was tested in a 10-dose IC50 mode. To determine the IC50 value, the compounds were tested for 10-doses with 3-fold serial dilution starting at 100 μM.
Synthesised compounds were evaluated for their in vitro PAK4 enzyme inhibitory activities. In vitro kinase assays were performed using HotSpot kinase assays for relative enzyme inhibitory activity at a single concentration (20 μM) and IC50 assessment at an ATP concentration of 10 μM (Figure 1(B)). […] For the allosteric pocket binder, cyclohexyl group (SPA7012) was preferable to the smaller dimethyl (SPA7011) or hydroxymethyl group (SPA7013), and the aromatic ring (SPA7014) reduced activity compared to the saturated ring (SPA7012). In vitro enzyme IC50 values appeared in the order of SPA7012, SPA7017, and SPA7016. […] Molecular docking analysis was performed on the human PAK4 catalytic domain structure complexed with GNE-2861 (PDB code: 4O0V). The binding pose of SPA7012 overlapped well with the crystal structure of GNE-2861, with the allosteric binder properly positioned in the specific back pocket. The oxygen atom in the tertiary alcohol of the hydrophobic allosteric binder formed hydrogen bonds with the backbone of Phe459 and the side chain of Glu366 (Figure 1(D)). The amine group and nitrogen atom in the pyrazolo[3,4-d]pyrimidine core scaffold also formed hydrogen bonds with Lue398 at the hinge region. Finally, SPA7012 was decided as a lead compound for further examination with satisfactory potency and subtype selectivity.

The pIC50 is −log10 of the IC50, conventionally taken in molar units. Higher therefore signals a low IC50. One may read the inhibition as the percentage by which the read-out fell short of the control.

T1 sequence (O96013 whole entry): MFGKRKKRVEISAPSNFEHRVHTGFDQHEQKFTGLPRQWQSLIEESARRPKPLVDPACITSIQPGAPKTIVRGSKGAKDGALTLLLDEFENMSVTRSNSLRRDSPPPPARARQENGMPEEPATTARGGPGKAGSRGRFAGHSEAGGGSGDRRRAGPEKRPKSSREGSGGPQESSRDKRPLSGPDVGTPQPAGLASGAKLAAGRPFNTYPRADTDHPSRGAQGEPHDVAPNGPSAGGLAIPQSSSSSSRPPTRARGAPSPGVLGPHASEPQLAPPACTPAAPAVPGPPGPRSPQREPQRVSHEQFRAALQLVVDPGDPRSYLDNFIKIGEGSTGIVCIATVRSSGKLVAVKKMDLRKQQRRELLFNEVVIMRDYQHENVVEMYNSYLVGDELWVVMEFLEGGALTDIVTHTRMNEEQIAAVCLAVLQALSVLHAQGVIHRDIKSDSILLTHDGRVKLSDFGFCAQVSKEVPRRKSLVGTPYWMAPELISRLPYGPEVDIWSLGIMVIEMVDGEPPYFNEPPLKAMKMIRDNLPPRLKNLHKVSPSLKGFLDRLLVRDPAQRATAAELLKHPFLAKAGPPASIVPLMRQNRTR

Turning to `Nc1nccc2c1c1ccccc1n2-c1cccc(C#CC2(O)CCCCC2)c1` [Compound 10b, 3-(1-Aminopyrido[4,3-b]indol-5-yl)phenylethynylcyclohexan-1-ol], the pIC50 was 4.47 and the inhibition at 20 µM is 54%.
Turning to `Cc1nn(-c2cccc(C#CC(C)(C)O)c2)c2ncnc(N)c12` [Compound 14a, 4–(3–(4-Amino-3-methylpyrazolo[3,4-d]pyrimidin-1-yl)phenyl)-2-methylbutyn-2-ol], the inhibition at 20 µM worked out at 60%.
Take `Nc1ncnc2c1c(CCCN1CCOCC1)nn2-c1cccc(C#CC2(O)CCCCC2)c1` [Compound 18a, (3–(4-Amino-3–(3-morpholin-4-ylpropyl)pyrazolo[3,4-d]pyrimidin-1-yl)phenylethynyl)cyclohexanol]: the pIC50 is 5.00 and the inhibition at 20 µM was 88%.
Take `CC(C)(O)C#Cc1cccc(-n2c3ccccc3c3c(N)nccc32)c1` [Compound 10a, 4–(3–(1-Aminopyrido[4,3-b]indol-5-yl)phenyl)-2-methylbutyn-2-ol]: the inhibition at 20 µM was 32%.
Still for that read-out and setting: the same measure for `CC(O)(C#Cc1cccc(-n2c3ccccc3c3c(N)nccc32)c1)CO` (centres unmarked) [Compound 10c, 4–(3-(1-Aminopyrido[4,3-b]indol-5-yl)phenyl)-2-methylbutyn-1,2-diol]: 29%; for `Cc1nn(-c2cccc(C#CC(C)(O)CO)c2)c2ncnc(N)c12` (centres unmarked) [Compound 14c, 4–(3-(4-Amino-3-methylpyrazolo[3,4-d]pyrimidin-1-yl)phenyl)-2-methylbutyn-1,2-diol]: 36%; for `Cc1nn(-c2cccc(C#CC(C)(O)c3ccccc3)c2)c2ncnc(N)c12` (centres unmarked) [Compound 14d, 4–(3-(4-Amino-3-methylpyrazolo[3,4-d]pyrimidin-1-yl)phenyl)-2-phenylbutyn-2-ol]: 65%.
Take `Nc1ncnc2c1c(CCCN1CCCCC1)nn2-c1cccc(C#CC2(O)CCCCC2)c1` [Compound 18b, (3-[4-Amino-3–(3-piperidin-1-ylpropyl)pyrazolo[3,4-d]pyrimidin-1-yl]phenylethynyl)cyclohexanol]: the pIC50 was 5.36 and the inhibition at 20 µM was found to be 90%.
